This passage reports relative viability results from the supplement of paper PMC10307832.

Assay in all cases: relative viability (nuclei count vs DMSO), 5 days (fraction); higher = more cells survive
Compound in the assay “Wnt-C59 + Lapatinib”: CC1=NC=CC(=C1)C2=CC=C(C=C2)CC(=O)NC3=CC=C(C=C3)C4=CN=CC=C4 [Wnt-C59] + CS(=O)(=O)CCNCc1ccc(-c2ccc3ncnc(Nc4ccc(OCc5cccc(F)c5)c(Cl)c4)c3c2)o1 [Lapatinib] (partner 2 µM)
In outline:
(§1)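 Each reported value is a median over duplicate plates. It expresses relative viability: treated-well nuclei count divided by vehicle-well nuclei count. Lung cancer cell lines in 1536-well plates were dosed by pin tool a day after seeding, alone with one drug or with a fixed anchor-drug dose plus five library-drug doses (not always all listed) in √10 steps, and nuclei were counted after 5 days.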

Compound in the assay “Wnt-C59 + Alpelisib”: CC1=NC=CC(=C1)C2=CC=C(C=C2)CC(=O)NC3=CC=C(C=C3)C4=CN=CC=C4 [Wnt-C59] + Cc1nc(NC(=O)N2CCC[C@H]2C(N)=O)sc1-c1ccnc(C(C)(C)C(F)(F)F)c1 [Alpelisib] (partner 2 µM)
In outline: as §1

Compound in the assay “Lapatinib + Foretinib”: CS(=O)(=O)CCNCc1ccc(-c2ccc3ncnc(Nc4ccc(OCc5cccc(F)c5)c(Cl)c4)c3c2)o1 [Lapatinib] + COc1cc2c(Oc3ccc(NC(=O)C4(C(=O)Nc5ccc(F)cc5)CC4)cc3F)ccnc2cc1OCCCN1CCOCC1 [Foretinib] (partner 0.25 µM)
An outline of the steps: as §1

Compound in the assay “Lapatinib + Phenformin”: CS(=O)(=O)CCNCc1ccc(-c2ccc3ncnc(Nc4ccc(OCc5cccc(F)c5)c(Cl)c4)c3c2)o1 [Lapatinib] + N=C(N)NC(=N)NCCc1ccccc1 [Phenformin] (partner 250 µM)
In outline: as §1

For the cell line Calu-6, the relative viability with Wnt-C59 + Lapatinib (first compound 0.001 µM) worked out at 1.07; with Wnt-C59 + Lapatinib (first compound 0.01 µM), 1.06; with Wnt-C59 + Lapatinib (first compound 0.03162 µM), 1.08; in the assay with Wnt-C59 + Lapatinib (first compound 0.1 µM), 0.951; with Wnt-C59 + Alpelisib (first compound 0.001 µM), 0.898; with Wnt-C59 + Alpelisib (first compound 0.01 µM) it was 0.945. For the same cell line, the relative viability worked out at 1.15 in the assay with Wnt-C59 + Alpelisib (first compound 0.03162 µM); 0.938 in the assay with Wnt-C59 + Alpelisib (first compound 0.1 µM); 0.86 with Lapatinib + Foretinib (first compound 0.02 µM); 0.852 in the assay with Lapatinib + Foretinib (first compound 0.06325 µM); 0.862 with Lapatinib + Foretinib (first compound 0.2 µM); 0.878 with Lapatinib + Foretinib (first compound 0.6325 µM). For the same cell line, in the assay with Lapatinib + Foretinib (first compound 2 µM), the relative viability was 0.904.

Consider ChaGo-K-1, for which the relative viability came out at 0.907 with Lapatinib + Foretinib (first compound 0.02 µM); 0.936 with Lapatinib + Foretinib (first compound 0.06325 µM); 0.879 in the assay with Lapatinib + Foretinib (first compound 0.2 µM); 0.951 with Lapatinib + Foretinib (first compound 0.6325 µM); 0.835 with Lapatinib + Foretinib (first compound 2 µM); 0.379 in the assay with Lapatinib + Phenformin (first compound 0.02 µM). For the same cell line, the relative viability in the assay with Lapatinib + Phenformin (first compound 0.06325 µM) was 0.386; in the assay with Lapatinib + Phenformin (first compound 0.2 µM), 0.465; with Lapatinib + Phenformin (first compound 0.6325 µM), 0.454; in the assay with Lapatinib + Phenformin (first compound 2 µM) it was 0.414.

For the cell line EBC-1, the relative viability in the assay with Wnt-C59 + Lapatinib (first compound 0.001 µM) was 0.203; in the assay with Wnt-C59 + Lapatinib (first compound 0.01 µM), 0.214; with Wnt-C59 + Lapatinib (first compound 0.03162 µM), 0.18; in the assay with Wnt-C59 + Lapatinib (first compound 0.1 µM), 0.208; with Wnt-C59 + Alpelisib (first compound 0.001 µM) it was 0.91; with Wnt-C59 + Alpelisib (first compound 0.01 µM), 0.852. For the same cell line, the relative viability with Wnt-C59 + Alpelisib (first compound 0.03162 µM) is 0.755; in the assay with Wnt-C59 + Alpelisib (first compound 0.1 µM) it was 0.79; with Lapatinib + Foretinib (first compound 0.02 µM), 0.113; with Lapatinib + Foretinib (first compound 0.06325 µM) it was 0.0941; with Lapatinib + Foretinib (first compound 0.2 µM), 0.0867; with Lapatinib + Foretinib (first compound 0.6325 µM), 0.108. Besides, the relative viability with Lapatinib + Foretinib (first compound 2 µM) was 0.0963.

As to EKVX, the relative viability was found to be 0.244 with Wnt-C59 + Lapatinib (first compound 0.001 µM); 0.183 with Wnt-C59 + Lapatinib (first compound 0.01 µM); 0.151 with Wnt-C59 + Lapatinib (first compound 0.03162 µM); 0.206 with Wnt-C59 + Lapatinib (first compound 0.1 µM); 0.931 with Wnt-C59 + Alpelisib (first compound 0.001 µM); 0.783 with Wnt-C59 + Alpelisib (first compound 0.01 µM). Besides, the relative viability in the assay with Wnt-C59 + Alpelisib (first compound 0.03162 µM) was 0.73; with Wnt-C59 + Alpelisib (first compound 0.1 µM), 0.668; in the assay with Lapatinib + Foretinib (first compound 0.02 µM), 0.202; with Lapatinib + Foretinib (first compound 0.06325 µM), 0.738; with Lapatinib + Foretinib (first compound 0.2 µM), 0.822; with Lapatinib + Foretinib (first compound 0.6325 µM), 0.581. Besides, the relative viability in the assay with Lapatinib + Foretinib (first compound 2 µM) was 0.201; in the assay with Lapatinib + Phenformin (first compound 0.02 µM) it was 0.185; in the assay with Lapatinib + Phenformin (first compound 0.06325 µM) it was 0.218; in the assay with Lapatinib + Phenformin (first compound 0.2 µM), 0.242; in the assay with Lapatinib + Phenformin (first compound 0.6325 µM), 0.235; with Lapatinib + Phenformin (first compound 2 µM), 0.146.

As to EMC-BAC-2, the relative viability came to 0.828 in the assay with Wnt-C59 + Lapatinib (first compound 0.001 µM); 0.755 in the assay with Wnt-C59 + Lapatinib (first compound 0.01 µM); 0.849 in the assay with Wnt-C59 + Lapatinib (first compound 0.03162 µM); 0.794 with Wnt-C59 + Lapatinib (first compound 0.1 µM); 0.684 with Wnt-C59 + Alpelisib (first compound 0.001 µM); 0.607 in the assay with Wnt-C59 + Alpelisib (first compound 0.01 µM). For the same cell line, the relative viability with Wnt-C59 + Alpelisib (first compound 0.03162 µM) amounted to 0.672; with Wnt-C59 + Alpelisib (first compound 0.1 µM) it was 0.65; in the assay with Lapatinib + Foretinib (first compound 0.02 µM) it was 0.953; in the assay with Lapatinib + Foretinib (first compound 0.06325 µM) it was 0.844; in the assay with Lapatinib + Foretinib (first compound 0.2 µM), 0.969; with Lapatinib + Foretinib (first compound 0.6325 µM) it was 0.86. Also, the relative viability with Lapatinib + Foretinib (first compound 2 µM) is 0.857; with Lapatinib + Phenformin (first compound 0.02 µM), 0.422; with Lapatinib + Phenformin (first compound 0.06325 µM) it was 0.407; in the assay with Lapatinib + Phenformin (first compound 0.2 µM) it was 0.532; with Lapatinib + Phenformin (first compound 0.6325 µM), 0.549; with Lapatinib + Phenformin (first compound 2 µM) it was 0.499.

In the case of EPLC-272H, the relative viability with Wnt-C59 + Lapatinib (first compound 0.001 µM) stood at 0.837; with Wnt-C59 + Lapatinib (first compound 0.01 µM), 0.959; in the assay with Wnt-C59 + Lapatinib (first compound 0.03162 µM), 1.19; with Wnt-C59 + Lapatinib (first compound 0.1 µM), 0.954; in the assay with Wnt-C59 + Alpelisib (first compound 0.001 µM) it was 0.96; with Wnt-C59 + Alpelisib (first compound 0.01 µM), 0.861. Further, the relative viability worked out at 0.976 in the assay with Wnt-C59 + Alpelisib (first compound 0.03162 µM); 0.921 with Wnt-C59 + Alpelisib (first compound 0.1 µM); 0.542 with Lapatinib + Foretinib (first compound 0.2 µM); 0.687 with Lapatinib + Foretinib (first compound 0.6325 µM); 0.325 in the assay with Lapatinib + Foretinib (first compound 2 µM); 0.243 with Lapatinib + Phenformin (first compound 0.2 µM). Besides, the relative viability with Lapatinib + Phenformin (first compound 0.6325 µM) turned out to be 0.266; with Lapatinib + Phenformin (first compound 2 µM), 0.241.

On to H3255, for which the relative viability in the assay with Wnt-C59 + Lapatinib (first compound 0.001 µM) was found to be 0.278; in the assay with Wnt-C59 + Lapatinib (first compound 0.01 µM), 0.283; with Wnt-C59 + Lapatinib (first compound 0.03162 µM) it was 0.259; with Wnt-C59 + Lapatinib (first compound 0.1 µM), 0.242; with Wnt-C59 + Alpelisib (first compound 0.001 µM) it was 0.798; in the assay with Wnt-C59 + Alpelisib (first compound 0.01 µM), 0.556. Further, the relative viability with Wnt-C59 + Alpelisib (first compound 0.03162 µM) turned out to be 0.68; in the assay with Wnt-C59 + Alpelisib (first compound 0.1 µM), 0.596; with Lapatinib + Foretinib (first compound 0.02 µM), 0.405; with Lapatinib + Foretinib (first compound 0.06325 µM) it was 0.789; with Lapatinib + Foretinib (first compound 0.2 µM), 0.826; with Lapatinib + Foretinib (first compound 0.6325 µM) it was 0.862. For the same cell line, the relative viability in the assay with Lapatinib + Foretinib (first compound 2 µM) came to 0.686; with Lapatinib + Phenformin (first compound 0.02 µM), 0.37; in the assay with Lapatinib + Phenformin (first compound 0.06325 µM), 0.327; with Lapatinib + Phenformin (first compound 0.2 µM) it was 0.314; with Lapatinib + Phenformin (first compound 0.6325 µM), 0.299; with Lapatinib + Phenformin (first compound 2 µM), 0.224.

In the case of HARA, the relative viability with Wnt-C59 + Lapatinib (first compound 0.001 µM) came to 0.649; with Wnt-C59 + Lapatinib (first compound 0.01 µM), 0.746; in the assay with Wnt-C59 + Lapatinib (first compound 0.03162 µM) it was 0.876; with Wnt-C59 + Lapatinib (first compound 0.1 µM) it was 0.751; with Wnt-C59 + Alpelisib (first compound 0.001 µM), 0.773; in the assay with Wnt-C59 + Alpelisib (first compound 0.01 µM), 0.645. For the same cell line, the relative viability in the assay with Wnt-C59 + Alpelisib (first compound 0.03162 µM) worked out at 0.959; with Wnt-C59 + Alpelisib (first compound 0.1 µM), 0.787; in the assay with Lapatinib + Foretinib (first compound 0.06325 µM) it was 0.593; in the assay with Lapatinib + Foretinib (first compound 0.2 µM), 0.843; in the assay with Lapatinib + Foretinib (first compound 0.6325 µM) it was 0.631; in the assay with Lapatinib + Foretinib (first compound 2 µM), 0.401. Further, the relative viability in the assay with Lapatinib + Phenformin (first compound 0.06325 µM) worked out at 0.307; in the assay with Lapatinib + Phenformin (first compound 0.2 µM) it was 0.434; in the assay with Lapatinib + Phenformin (first compound 0.6325 µM), 0.399; with Lapatinib + Phenformin (first compound 2 µM) it was 0.337.

As for HCC-15, the relative viability was found to be 0.859 in the assay with Wnt-C59 + Lapatinib (first compound 0.001 µM); 0.91 with Wnt-C59 + Lapatinib (first compound 0.01 µM); 0.774 with Wnt-C59 + Lapatinib (first compound 0.03162 µM); 0.823 with Wnt-C59 + Lapatinib (first compound 0.1 µM); 0.962 with Wnt-C59 + Alpelisib (first compound 0.001 µM); 0.952 with Wnt-C59 + Alpelisib (first compound 0.01 µM). The relative viability with Wnt-C59 + Alpelisib (first compound 0.03162 µM) worked out at 0.904; in the assay with Wnt-C59 + Alpelisib (first compound 0.1 µM) it was 0.868; in the assay with Lapatinib + Foretinib (first compound 0.06325 µM), 0.812; with Lapatinib + Foretinib (first compound 0.2 µM), 1.02; in the assay with Lapatinib + Foretinib (first compound 0.6325 µM), 0.949; in the assay with Lapatinib + Foretinib (first compound 2 µM), 0.971. Besides, the relative viability in the assay with Lapatinib + Phenformin (first compound 0.06325 µM) turned out to be 0.398; in the assay with Lapatinib + Phenformin (first compound 0.2 µM), 0.521; with Lapatinib + Phenformin (first compound 0.6325 µM), 0.498; with Lapatinib + Phenformin (first compound 2 µM) it was 0.484.
